How the values were obtained:
Assay in all cases: Response of rice plants to various herbicides, seed set in greenhouse
Assay type in all cases: in vivo
Conditions in all cases: post-emergence, 1× g ai/ha: PURSUIT 62.5, CADRE 32, ARSENAL 24, RAPTOR 32, SCEPTER 125, ACCENT 35, CLASSIC 5, AC322,140 20, LONDAX 68
[1] = system: untransformed Nt rice plants
Excerpt: (§1) A total of 9 herbicides, 5 imidazolinones, two rice herbicides and ACCENT® (nicosulfuron) and CLASSIC® (clorimuron-ethyl) were applied in this study. Materials and methods were basically the same as described above, except that instead of 6″ pots, flats with 18 (3″×3″ per cell) cells were used, and 10-12 seeds were planted to one 3″×3″ cell. Ten plants were maintained in one cell in the post-emergence application. Each herbicide was sprayed at 4 different rates, 1, 2, 4, and 6×, as either pre or post-emergence applications with three replications per treatment. The name and amount of herbicide applied in this experiment and information relevant to their commercial applications are listed in Table 3. For simplicity and convenience, the lowest concentration used is referred as 1× rate, 2, 4 and 6× rates can be calculated as multiples of 1×.
(§2) To monitor plant response to various herbicides, data on fresh weight was collected. For pre-emergence applications, all plants from one cell were harvested 32 days after spraying (36-day old plants) and weighed. Twenty-nine days after herbicide application, 5 plants (44-day old plants) from each cell in the post-emergence application, were cut and weighed individually. Mean fresh weight for each treatment was calculated over three replications. The remaining 5 plants were grown in the greenhouse to maturity at which time, panicles of 3 plants were collected, and number of filled seeds and number of total kernels were counted to determine percentage of seed set.

transgenic rice Line 29 = system: transgenic rice Line 29
Excerpt: as §1, §2

transgenic rice Line 26 = system: transgenic rice Line 26
Excerpt: as §1, §2

Cc1cnc(C2=NC(=O)C(C)(C(C)C)N2)c(C(=O)O)c1 (stereo not drawn) [CADRE ®, imazameth]
% seed-set ([1]; 1× rate): 98% | No. filled seeds/3 panicles ([1]; 1× rate): 92 | Total No. of kernels/3 panicles ([1]; 1× rate): 94 | % seed-set ([1]; 2× rate): 83% | No. filled seeds/3 panicles ([1]; 2× rate): 76 | Total No. of kernels/3 panicles ([1]; 2× rate): 82 | % seed-set ([1]; 4× rate): 0% | No. filled seeds/3 panicles ([1]; 4× rate): 0 | Total No. of kernels/3 panicles ([1]; 4× rate): 0 | % seed-set ([1]; 6× rate): 0% | No. filled seeds/3 panicles ([1]; 6× rate): 0 | Total No. of kernels/3 panicles ([1]; 6× rate): 0 | % seed-set (transgenic rice Line 29; 1× rate): 88% | No. filled seeds/3 panicles (transgenic rice Line 29; 1× rate): 154 | Total No. of kernels/3 panicles (transgenic rice Line 29; 1× rate): 175 | % seed-set (transgenic rice Line 29; 2× rate): 86% | No. filled seeds/3 panicles (transgenic rice Line 29; 2× rate): 143 | Total No. of kernels/3 panicles (transgenic rice Line 29; 2× rate): 166 | % seed-set (transgenic rice Line 29; 4× rate): 82% | No. filled seeds/3 panicles (transgenic rice Line 29; 4× rate): 126 | Total No. of kernels/3 panicles (transgenic rice Line 29; 4× rate): 154 | % seed-set (transgenic rice Line 29; 6× rate): 80% | No. filled seeds/3 panicles (transgenic rice Line 29; 6× rate): 127 | Total No. of kernels/3 panicles (transgenic rice Line 29; 6× rate): 159 | % seed-set (transgenic rice Line 26; 1× rate): 84% | No. filled seeds/3 panicles (transgenic rice Line 26; 1× rate): 133 | Total No. of kernels/3 panicles (transgenic rice Line 26; 1× rate): 159 | % seed-set (transgenic rice Line 26; 2× rate): 95% | No. filled seeds/3 panicles (transgenic rice Line 26; 2× rate): 153 | Total No. of kernels/3 panicles (transgenic rice Line 26; 2× rate): 161 | % seed-set (transgenic rice Line 26; 4× rate): 87% | No. filled seeds/3 panicles (transgenic rice Line 26; 4× rate): 124 | Total No. of kernels/3 panicles (transgenic rice Line 26; 4× rate): 143 | % seed-set (transgenic rice Line 26; 6× rate): 77% | No. filled seeds/3 panicles (transgenic rice Line 26; 6× rate): 131 | Total No. of kernels/3 panicles (transgenic rice Line 26; 6× rate): 169

From patent US6653529B2, “Use of the maize X112 mutant ahas 2 gene and imidazolinone herbicides for selection of transgenic monocots, maize, rice and wheat plants resistant to the imidazolinone herbicides” (BASF Aktiengesellschaft, priority 2000, dated 2003)
